Results reported in PMC11241527, “Long-Chain Alkylthio Cyclodextrin Derivatives for Modulation of Quorum-Sensing-Based Bioluminescence in Aliivibrio fischeri Model System” (International Journal of Molecular Sciences, 2024).
Read-outs that look alike come from different tables or passages of the source.

Tests used:
A. fischeri [1] = experiment: Bioluminescence inhibition assay in the Aliivibrio fischeri model system; format: cell-based; settings: for EC20: 20% inhibition of bioluminescence after 120 min exposure; for inhibition at 2000 µM: read-out: inhibition of bioluminescence; for inhibitory effect on bioluminescence, upper limit in any case: any tested concentration and time, not statistically significant
Description: The time- and concentration-dependent effect of native α- and β-CDs, their N,N,N-trimethyl-ammoniopropyl derivatives, and novel alkylthio derivatives were tested in a series of short-term (30–120 min) experiments at 0.008–10 mM concentration range. To differentiate between the quorum-quenching effect and the cytotoxic effect of the CDs, bioluminescence as well as cell viability (the population growth and the enzyme activity) were determined.
(§1) The bacterial strain A. fischeri (NRRL B-111 77) was cultured and maintained in the laboratory under axenic circumstances. The 16 h old (overnight) cell culture applied for the tests was prepared by inoculating 30 mL of Photobacterium medium with an ampoule of lyophilized bacteria. The culture was shaken in the dark at 160 rpm, 24 °C, to an optical density of 0.6 at 600 nm (OD600).
The tested CD molecules were suspended in sterile distilled water and sterilized in an autoclave. A dilution series was prepared from the stock solutions (suspensions), covering a 0.04–50 mM concentration range.
The experiments were carried out with overnight A. fischeri cell culture in 96-well microtiter plates with a total volume of 250 µL. Fifty microliters of the members of the fivefold dilution series made from stock solutions were added to the wells of a sterile, transparent, 96-well, round-bottomed Sarstedt microtiter plate in four replicates. Distilled water was used as a negative control in the same volume.
To ensure the validity of data and verify the sensitivity of the bacteria, a five-member CuSO4 dilution series (1.6 ppm, 8 ppm, 40 ppm, 200 ppm, and […]) was used as a positive control. After that, 200 μL of the diluted overnight culture was added to the wells, except for the blank samples, for which 200 μL of Photobacterium medium was added instead.
The bioluminescence intensity was measured with a Fluostar Optima microplate reader (BMG Labtech, Ortenberg, Germany; fluorescence detection limit > 30 amol/well ATP) after 30, 60, and 120 min of exposure. The evaluation of the results was carried out as described by Ujaczki et al. (2015).
The determination of the concentration–response relationship is a method employed in the field of environmental toxicology, with the objective of objectively assessing the effects of different chemicals. The effective concentration endpoints (EC20 and EC50 values) of the tests are uniformly used for the quantification and comparison of the effects of chemicals and environmental matrices.

A. fischeri [2] = experiment: Optical density measurement, population growth assay; format: cell-based, Aliivibrio fischeri; settings: for inhibition at 10000 µM: 10 mM; for inhibition at 2000 µM: 2 mM, read-out: inhibition of cell proliferation (population growth), maximum; for inhibition of population growth (optical density): within 30, 60 and 120 min, regardless of the concentration
Description: as §1
The measurements were carried out as described by Molnár et al. (2021). The OD was measured after the incubation period, following the bioluminescence inhibition assay with DIALAB ELx800 ELISA Microplate Reader (Dialab GmbH, Wiener Neudorf, Austria) at the wavelength of 630 nm.

A. fischeri [3] = experiment: Cell viability, tetrazolium (MTT) reduction assay; format: cell-based, Aliivibrio fischeri; settings: 120 min; for inhibitive effect on cell viability, maximum: 0.08 mM; for inhibition in the viability: 10 mM
Description: The cell viability assay characterizing the activity of the hydrogen transport (the dehydrogenase enzyme activity) is based on the spectrophotometric measurement of the absorbance of a formazan product of the reduction in the tetrazolium salts.
The absorbance—which we determined after 120 min of exposure—is directly proportional to the metabolic activity of the cells.
To examine the potential influence of the CDs on the vitality of the bacteria, an enzyme activity assay was applied using 3-(4,5-dimethylthiazol-2-yl)-2,5-diphenyltetrazolium bromide (MTT).
Metabolically active cells reduce the […] MTT into a black formazan product, whose concentration is directly proportional to the activity of the viable cells. Following the population growth assay, the assay was performed in the same microplates by adding 30 μL of 4 mg/mL sterile MTT solution to each well.
The microtiter plate was then incubated for 30 min until color development.

[4] = Solubility in water at 25 °C; format: physicochemical; settings: for solubility: read-out: WS, water solubility
Description: The characteristics: abbreviations (A), the molecular weight (MW), the solubility in water at 25 °C (WS), and the degree of substitution (DS) of the tested CDs are presented in Table 4 and Table 5.

A. fischeri [5] = test system: A. fischeri; design: method as in PMID 33321169; settings: cited from earlier work
[6] = Aggregation studies by dynamic light scattering (volume particle size distribution); format: physicochemical; settings: 1% aqueous solution, 25 °C
Description: Most CDs are prone to aggregation in aqueous solution due to their numerous hydroxyl moieties.
The aggregation behavior (nanoparticle formation) was studied by photon correlation spectroscopy (dynamic light scattering) using Malvern Zetasizer Nano ZS (Malvern Instruments, Malvern, UK) equipment at 25 °C using 1% aqueous solution.

[7] = Aliivibrio fischeri, 0.5 h, 30 min
[8] = Aliivibrio fischeri, 1 h, 60 min
[9] = Aliivibrio fischeri, 2 h, 120 min

## CCCCCCCCCCCCSC[C@H]1O[C@@H]2O[C@H]3[C@H](O)[C@@H](O)[C@@H](O[C@H]4[C@H](O)[C@@H](O)[C@@H](O[C@H]5[C@H](O)[C@@H](O)[C@@H](O[C@H]6[C@H](O)[C@@H](O)[C@@H](O[C@H]7[C@H](O)[C@@H](O)[C@@H](O[C@H]1[C@H](O)[C@H]2O)O[C@@H]7CO)O[C@@H]6CO)O[C@@H]5CO)O[C@@H]4CO)O[C@@H]3CO [6S-C12-α-CD (3), 6-monodeoxy-6-monododecanethiol-α-CD]
A. fischeri [1]; 0.4 mM, 120 min
  decrease in bioluminescence intensity: 71%
A. fischeri [1]; 10 mM, 120 min
  decrease in bioluminescence intensity: 79%
A. fischeri [1]
  EC20: 60 µM
A. fischeri [1]; Aliivibrio fischeri, 2 h
  EC50: 160 µM
  inhibition at 2000 µM: 85%
A. fischeri [2]; [7]
  inhibition at 10000 µM: 50%
A. fischeri [2]; [8]
  inhibition at 10000 µM: 54%
A. fischeri [2]; [9]
  inhibition at 10000 µM: 59%
A. fischeri [3]; at 2 and 10 mM
  decrease in cell viability, maximum: 40%
[4]
  solubility: > 10000 µg/mL

## CCCCCCCCCCCCSC[C@H]1O[C@@H]2O[C@H]3[C@H](O)[C@@H](O)[C@@H](O[C@H]4[C@H](O)[C@@H](O)[C@@H](O[C@H]5[C@H](O)[C@@H](O)[C@@H](O[C@H]6[C@H](O)[C@@H](O)[C@@H](O[C@H]7[C@H](O)[C@@H](O)[C@@H](O[C@H]8[C@H](O)[C@@H](O)[C@@H](O[C@H]1[C@H](O)[C@H]2O)O[C@@H]8CO)O[C@@H]7CO)O[C@@H]6CO)O[C@@H]5CO)O[C@@H]4CO)O[C@@H]3CO [6S-C12-β-CD (7), 6-monodeoxy-6-monododecanethiol-β-CD]
A. fischeri [1]
  EC20: 90 µM
A. fischeri [1]; Aliivibrio fischeri, 0.5 h
  inhibition at 2000 µM: 77%
A. fischeri [1]; Aliivibrio fischeri, 1 h
  inhibition at 2000 µM: 76%
A. fischeri [1]; Aliivibrio fischeri, 2 h
  EC50: 760 µM
  inhibition at 2000 µM: 70%
A. fischeri [2]; [7]
  inhibition at 2000 µM: 72%
A. fischeri [2]; [8]
  inhibition at 2000 µM: 69%
A. fischeri [2]; [9]
  inhibition at 2000 µM: 65%
A. fischeri [3]; 2 mM
  vitality-reducing effect (cell viability): 41%
[4]
  solubility: > 10000 µg/mL

## OC[C@H]1O[C@@H]2O[C@H]3[C@H](O)[C@@H](O)[C@@H](O[C@H]4[C@H](O)[C@@H](O)[C@@H](O[C@H]5[C@H](O)[C@@H](O)[C@@H](O[C@H]6[C@H](O)[C@@H](O)[C@@H](O[C@H]7[C@H](O)[C@@H](O)[C@@H](O[C@H]8[C@H](O)[C@@H](O)[C@@H](O[C@H]1[C@H](O)[C@H]2O)O[C@@H]8CO)O[C@@H]7CO)O[C@@H]6CO)O[C@@H]5CO)O[C@@H]4CO)O[C@@H]3CO [β-CD (5), Native β-CD, reference compound]
A. fischeri [1]
  inhibitory effect on bioluminescence, upper limit in any case: ≤ 35%
A. fischeri [2]; Aliivibrio fischeri, 0.5 h, read-out: inhibition of population growth, maximum
  inhibition at 80 µM: ≤ 34%
A. fischeri [3]
  inhibitive effect on cell viability, maximum: 15%

## OC[C@H]1O[C@@H]2O[C@H]3[C@H](O)[C@@H](O)[C@@H](O[C@H]4[C@H](O)[C@@H](O)[C@@H](O[C@H]5[C@H](O)[C@@H](O)[C@@H](O[C@H]6[C@H](O)[C@@H](O)[C@@H](O[C@H]7[C@H](O)[C@@H](O)[C@@H](O[C@H]8[C@H](O)[C@@H](O)[C@@H](O[C@H]9[C@H](O)[C@@H](O)[C@@H](O[C@H]1[C@H](O)[C@H]2O)O[C@@H]9CO)O[C@@H]8CO)O[C@@H]7CO)O[C@@H]6CO)O[C@@H]5CO)O[C@@H]4CO)O[C@@H]3CO [γ-CD]
A. fischeri [5]; previous study
  quorum-quenching efficacy (reduction of bacterial bioluminescence): ineffective

## N,N,N-Trimethylammoniopropyl-6-monodeoxy-6-monodecanethiol-α-CD [QA-6S-C10-α-CD (4)]
A. fischeri [1]; 1 mM, 120 min
  reduction of bioluminescence: 69%
A. fischeri [1]
  EC20: 200 µM
A. fischeri [1]; 50% inhibition of bioluminescence after 120 min exposure, read-out: EC50
  EC50: 240 µM
A. fischeri [2]
  inhibition of population growth (optical density): up to 30%
A. fischeri [3]; regardless of concentration
  inhibition of the enzyme activity (cell viability): 24–27%

## N,N,N-Trimethylammoniopropyl-6-monodeoxy-6-monohexadecanethiol-β-CD [QA-6S-C16-β-CD (9)]
A. fischeri [1]; 1 mM, time not stated
  inhibitory effect (QS inhibition, bioluminescence): 48%
A. fischeri [1]
  EC20: 170 µM
A. fischeri [2]; 5 mM, 120 min
  inhibition of population growth: 38%
A. fischeri [3]; 5 mM
  inhibition of cell viability: 35%
[4]
  WS, water solubility: ~10000 µg/mL
[6]
  average size of larger aggregates: 111 nm
  size of larger aggregates with high polydispersity: 50–500 nm

## N,N,N-Trimethylammoniopropyl-α-CD [QA-α-CD (2), reference compound]
A. fischeri [1]
  EC20: 3140 µM
A. fischeri [1]; tested concentrations 0.08-10 mM, examined period 30-120 min
  inhibition of bioluminescence (significance): no significant inhibition
A. fischeri [2]
  inhibition of population growth (optical density): up to 30%
A. fischeri [3]
  inhibition in the viability: 41%

## N,N,N-Trimethylammoniopropyl-β-CD [QA-β-CD (6), reference compound]
A. fischeri [1]
  inhibitory effect on bioluminescence, upper limit in any case: ≤ 35%
A. fischeri [2]; 0.08 mM, 30 min of exposure
  inhibition of population growth, maximum: ≤ 34%
A. fischeri [3]
  inhibitive effect on cell viability, maximum: 10%
[4]
  WS, water solubility: >500000 µg/mL

## Native α-CD [α-CD (1), reference compound]
A. fischeri [1]
  inhibition of bioluminescence (significance): no significant inhibition
  EC20: 80 µM
A. fischeri [2]
  inhibition of population growth (optical density): up to 30%
A. fischeri [3]
  inhibition in the viability: 29%
A. fischeri [5]; 10 mM, 120 min exposure time
  inhibition of bioluminescence: over 60%
